Reference: US20260224544A1, “Intranasal Formulations for Treating Obstructive Sleep Apnea” (Mosanna Therapeutics AG, priority 2023, published 2026)
Entries after “also recorded” stand apart in the source; their conditions may differ.

What was measured:
[1] = test system: male patients with Obstructive Sleep Apnea-Hypopnea Syndrome (OSAHS); assay: Phase 2 clinical trial: treatment emergent adverse events (TEAE); assay type: in vivo, human; details: single intranasal dose 18 mg, n = 38
Experimental: (§1) This was a single intranasal dose, multi-center, randomized, placebo-controlled, double-blind, 2-way crossover study with two treatment periods in male patients with Obstructive Sleep Apnea-Hypopnea Syndrome (OSAHS).
(§2) After a screening phase of up to 21 days, the patients received single doses of 18 mg of compound 1 administered as 3 actuations of 100 μL of study drug into each nostril (9 mg/nostril) or matching placebo at bedtime in each study period. The single nasal doses were administered in a sitting position. There was a wash-out period of 2 days to 3 weeks between the two study periods. The duration of the study per patient ranged from 13 days to a maximum of 8 weeks.
The Safety population was defined as all randomized patients exposed to the study medication, regardless of the amount of treatment administered. Patients were analyzed using the treatment they actually received at each period.

[2] = test system: male patients with Obstructive Sleep Apnea-Hypopnea Syndrome (OSAHS); assay: Phase 2 clinical trial: change from baseline in Apnea Hypopnea Index (AHI) by overnight polysomnography; assay type: in vivo, human; details: single intranasal dose 18 mg
Experimental: as §1, §2
Efficacy was assessed in a blinded fashion using overnight polysomnographic recordings (PSG) which were centrally read and interpreted. The central readers were blinded with regard to the treatment sequence the patients received and with regard to potential safety findings. Maintenance of Wakefulness Tests (MWT) and Stanford Sleepiness Scores (SSS) were also used for the assessment of Excessive Daytime Sleepiness (EDS), and plasma concentrations of compound 1 were assessed at baseline and approximately 10 hours after study drug administration (data not shown). […]
Patients were analyzed using the treatment they actually received at each period, irrespective of the treatment sequence they were randomized to. […]

[3] = test system: upper airway collapsibility; details: anesthetized pigs, administered topically to the upper airway; Wirth et al. 2013; cited from earlier work
[4] = Compound 1 drug substance batch analysis (particle size distribution); assay type: physicochemical
Text: The following compound 1 batches were manufactured (Table 31).

[5] = Compound 1 drug substance stability (ICH storage conditions); assay type: physicochemical; details: long term conditions 25±2° C./60±5%, data not shown
Experimental: A stability study for compound 1 batch H (non-micronized, GMP) was initiated as per ICH storage conditions described in Table 36.
Results for 1 month of storage at 25±2° C./60±5% RH, 30±2° C./65±5% RH and at 40±2° C./75±5% RH are available to date.
A stability study for compound 1 batch L and M (micronized to d90<10 μm and d90<35 μm respectively, scheduled GMP sublots of compound 1 batch H) will be initiated as per ICH reference storage conditions described in Table 37 and Table 38.
To date, only limited data are available on compound 1 drug substance both non-micronized and micronized.

With COc1ccc(CC(=O)NCc2ccccc2-c2ccccc2C(=O)NCCc2cccnc2)cc1 [Compound 1, 2′-{[2-(4-methoxy-phenyl)-acetylamino]-methyl}-biphenyl-2-carboxylic acid (2-pyridin-3-yl-ethyl)-amide] the “All grade TEAEs: Cough, %” value [1] was “(50.0%)”, the “All grade TEAEs: Eye Disorders, %” value [1] was “(57.9%)” and the “All grade TEAEs: Increased tearing, %” value [1] was “(52.6%)”. The “All grade TEAEs: Nasal discomfort, %” value [1] was “(36.8%)”, the “All grade TEAEs: Respiratory, %” value [1] was “(97.4%)” and the “All grade TEAEs: Rhinorrhea, %” value [1] was “(18.4%)”. The “All grade TEAEs: Sneezing, %” value [1] was “(84.2%)”, the “All grade TEAEs: Throat irritations, %” value [1] was “(34.2%)” and the “AHI (num/hr) LS mean difference, compound 1 versus placebo, change from baseline” value ([2]; ITT population) was −3.78 num/hr. The “primary efficacy outcome (reduction of AHI versus placebo)” value [2] was “not statistically significant; also recorded: no significant improvement in obstructive sleep apnea”, the “inhibition of upper airway collapsibility” value [3] was “dose-dependently inhibit upper airway collapsibility” and the “D90 of drug substance” value ([4]; micronized drug substance) was “approximately 4.9 μm”. The “D90 of drug substance” value ([4]; non micronized batch sieved with a 32 μm mesh) was “approximately 28 μm”.

With COc1ccc(CC(=O)NCc2ccccc2-c2ccccc2C(=O)NCCc2cccnc2)cc1 [Cmpd 1 batch L] the “Particle size distribution d10” value ([4]; micronized drug substance) was “d10 0.80 μm”, the “Particle size distribution d50” value ([4]; micronized drug substance) was “d50 2.3 μm” and the “Particle size distribution d90” value ([4]; micronized drug substance) was “d90 5.9 μm”.

For COc1ccc(CC(=O)NCc2ccccc2-c2ccccc2C(=O)NCCc2cccnc2)cc1 [listing 1 of 2 here], the “time for which stability was demonstrated” value ([5]; lots manufactured in 2004) was “up to 36 months”.

In the case of COc1ccc(CC(=O)NCc2ccccc2-c2ccccc2C(=O)NCCc2cccnc2)cc1 [Cmpd 1 batch K], the “Particle size distribution d10” value ([4]; micronized drug substance) is reported as “d10 1.81 μm”, the “Particle size distribution d50” value ([4]; micronized drug substance) is reported as “d50 12.53 μm” and the “Particle size distribution d90” value ([4]; micronized drug substance) is reported as “d90 30.01 μm”.

With COc1ccc(CC(=O)NCc2ccccc2-c2ccccc2C(=O)NCCc2cccnc2)cc1 [listing 2 of 2 here] the “time for which stability was demonstrated” value ([5]; micronized, 2004 lot) was “up to 12 months”.

With COc1ccc(CC(=O)NCc2ccccc2-c2ccccc2C(=O)NCCc2cccnc2)cc1 [Cmpd 1 batch E] the “Particle size distribution d10” value ([4]; micronized drug substance) was “d10 0.96 μm”, the “Particle size distribution d50” value ([4]; micronized drug substance) was “d50 4.14 μm” and the “Particle size distribution d90” value ([4]; micronized drug substance) was “d90 8.85 μm”.
